In the supplement of paper PMC10307832:

Columns and labels:
Assay in all cases: relative viability (nuclei count vs DMSO), 5 days (fraction); higher = more cells survive
NCI-H1355 = system: NCI-H1355
In short: (§1)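 After 5 days of treatment, lung cancer cells in 1536-well plates were fixed and stained in a single step (final 0.05% Triton X-100, 1% formaldehyde, 1 ug/ml Hoechst) and their nuclei counted on 4× images. Treatment had been applied by pin tool the day after seeding as one drug alone or as a fixed anchor-drug dose with five library-drug doses (not always all listed) in √10 steps. Relative viability is the nuclei count of treated wells divided by that of vehicle wells, and values are medians of duplicate plates.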

ChaGo-K-1 = system: ChaGo-K-1
In short: as §1

NCI-H2023 = system: NCI-H2023
In short: as §1

ABC-1 = system: ABC-1
In short: as §1

NCI-H2085 = system: NCI-H2085
In short: as §1

NCI-H1793 = system: NCI-H1793
In short: as §1

NCI-H2228 = system: NCI-H2228
In short: as §1

NCI-H2405 = system: NCI-H2405
In short: as §1

LCLC-103H = system: LCLC-103H
In short: as §1

NCI-H2347 = system: NCI-H2347
In short: as §1

NCI-H1734 = system: NCI-H1734
In short: as §1

HCC-827 = system: HCC-827
In short: as §1

HCC-15 = system: HCC-15
In short: as §1

NCI-H3122 = system: NCI-H3122
In short: as §1

COR-L23 = system: COR-L23
In short: as §1

SW 1573 = system: SW 1573
In short: as §1

NCI-H1944 = system: NCI-H1944
In short: as §1

EPLC-272H = system: EPLC-272H
In short: as §1

PC-14 = system: PC-14
In short: as §1

HCC-44 = system: HCC-44
In short: as §1

NCI-H2009 = system: NCI-H2009
In short: as §1

Cc1cn(-c2cc(NC(=O)c3ccc(C)c(Nc4nccc(-c5cccnc5)n4)c3)cc(C(F)(F)F)c2)cn1 [Nilotinib] + CCNC(=O)c1noc(-c2cc(C(C)C)c(O)cc2O)c1-c1ccc(CN2CCOCC2)cc1 [Luminespib] (partner 0.01 µM)
relative viability (NCI-H1355; first compound 0.001 µM): 0.542
relative viability (NCI-H1355; first compound 0.003162 µM): 0.7
relative viability (NCI-H1355; first compound 0.01 µM): 0.644
relative viability (NCI-H1355; first compound 0.03162 µM): 0.549
relative viability (NCI-H1355; first compound 0.1 µM): 0.654
relative viability (ChaGo-K-1; first compound 0.001 µM): 0.416
relative viability (ChaGo-K-1; first compound 0.003162 µM): 0.48
relative viability (ChaGo-K-1; first compound 0.01 µM): 1.01
relative viability (ChaGo-K-1; first compound 0.03162 µM): 0.531
relative viability (ChaGo-K-1; first compound 0.1 µM): 0.666
relative viability (NCI-H2023; first compound 0.001 µM): 0.854
relative viability (NCI-H2023; first compound 0.003162 µM): 0.89
relative viability (NCI-H2023; first compound 0.01 µM): 0.99
relative viability (NCI-H2023; first compound 0.03162 µM): 1.07
relative viability (NCI-H2023; first compound 0.1 µM): 0.38
relative viability (ABC-1; first compound 0.001 µM): 0.508
relative viability (ABC-1; first compound 0.003162 µM): 0.227
relative viability (ABC-1; first compound 0.01 µM): 0.554
relative viability (ABC-1; first compound 0.03162 µM): 1.28
relative viability (ABC-1; first compound 0.1 µM): 0.252
relative viability (NCI-H2085; first compound 0.001 µM): 0.392
relative viability (NCI-H2085; first compound 0.003162 µM): 0.46
relative viability (NCI-H2085; first compound 0.01 µM): 0.427
relative viability (NCI-H2085; first compound 0.03162 µM): 0.375
relative viability (NCI-H2085; first compound 0.1 µM): 0.382
relative viability (NCI-H1793; first compound 0.001 µM): 0.158
relative viability (NCI-H1793; first compound 0.003162 µM): 0.162
relative viability (NCI-H1793; first compound 0.01 µM): 0.195
relative viability (NCI-H1793; first compound 0.03162 µM): 0.168
relative viability (NCI-H1793; first compound 0.1 µM): 0.166
relative viability (NCI-H2228; first compound 0.003162 µM): 0.161
relative viability (NCI-H2228; first compound 0.01 µM): 0.183
relative viability (NCI-H2228; first compound 0.03162 µM): 0.151
relative viability (NCI-H2228; first compound 0.1 µM): 0.0953
relative viability (NCI-H2405; first compound 0.001 µM): 0.76
relative viability (NCI-H2405; first compound 0.003162 µM): 0.575
relative viability (NCI-H2405; first compound 0.01 µM): 0.756
relative viability (NCI-H2405; first compound 0.03162 µM): 0.448
relative viability (NCI-H2405; first compound 0.1 µM): 0.658
relative viability (LCLC-103H; first compound 0.001 µM): 0.971
relative viability (LCLC-103H; first compound 0.003162 µM): 1.3
relative viability (LCLC-103H; first compound 0.01 µM): 1.33
relative viability (LCLC-103H; first compound 0.03162 µM): 0.927
relative viability (LCLC-103H; first compound 0.1 µM): 0.919
relative viability (NCI-H2347; first compound 0.001 µM): 0.344
relative viability (NCI-H2347; first compound 0.003162 µM): 0.263
relative viability (NCI-H2347; first compound 0.01 µM): 0.712
relative viability (NCI-H2347; first compound 0.03162 µM): 0.589
relative viability (NCI-H2347; first compound 0.1 µM): 0.598
relative viability (NCI-H1734; first compound 0.001 µM): 0.174
relative viability (NCI-H1734; first compound 0.003162 µM): 0.168
relative viability (NCI-H1734; first compound 0.01 µM): 0.208
relative viability (NCI-H1734; first compound 0.03162 µM): 0.183
relative viability (NCI-H1734; first compound 0.1 µM): 0.169
relative viability (HCC-827; first compound 0.003162 µM): 0.634
relative viability (HCC-827; first compound 0.01 µM): 0.721
relative viability (HCC-827; first compound 0.03162 µM): 0.563
relative viability (HCC-827; first compound 0.1 µM): 0.542
relative viability (HCC-15; first compound 0.001 µM): 0.241
relative viability (HCC-15; first compound 0.003162 µM): 0.431
relative viability (HCC-15; first compound 0.01 µM): 0.486
relative viability (HCC-15; first compound 0.03162 µM): 0.219
relative viability (HCC-15; first compound 0.1 µM): 0.325
relative viability (NCI-H3122; first compound 0.001 µM): 0.109
relative viability (NCI-H3122; first compound 0.003162 µM): 0.106
relative viability (NCI-H3122; first compound 0.01 µM): 0.0956
relative viability (NCI-H3122; first compound 0.03162 µM): 0.0805
relative viability (NCI-H3122; first compound 0.1 µM): 0.047
relative viability (COR-L23; first compound 0.001 µM): 0.478
relative viability (COR-L23; first compound 0.003162 µM): 0.557
relative viability (COR-L23; first compound 0.01 µM): 0.883
relative viability (COR-L23; first compound 0.03162 µM): 0.507
relative viability (COR-L23; first compound 0.1 µM): 0.535
relative viability (SW 1573; first compound 0.001 µM): 0.397
relative viability (SW 1573; first compound 0.003162 µM): 0.711
relative viability (SW 1573; first compound 0.01 µM): 0.277
relative viability (SW 1573; first compound 0.03162 µM): 0.163
relative viability (SW 1573; first compound 0.1 µM): 0.144
relative viability (NCI-H1944; first compound 0.001 µM): 0.627
relative viability (NCI-H1944; first compound 0.003162 µM): 0.669
relative viability (NCI-H1944; first compound 0.01 µM): 0.669
relative viability (NCI-H1944; first compound 0.03162 µM): 0.694
relative viability (EPLC-272H; first compound 0.001 µM): 0.134
relative viability (EPLC-272H; first compound 0.003162 µM): 0.205
relative viability (EPLC-272H; first compound 0.01 µM): 0.277
relative viability (EPLC-272H; first compound 0.03162 µM): 0.265
relative viability (EPLC-272H; first compound 0.1 µM): 0.175
relative viability (PC-14; first compound 0.001 µM): 0.168
relative viability (PC-14; first compound 0.003162 µM): 0.152
relative viability (PC-14; first compound 0.01 µM): 0.138
relative viability (PC-14; first compound 0.03162 µM): 0.123
relative viability (PC-14; first compound 0.1 µM): 0.153
relative viability (HCC-44; first compound 0.001 µM): 0.845
relative viability (HCC-44; first compound 0.003162 µM): 1.12
relative viability (HCC-44; first compound 0.01 µM): 1.14
relative viability (HCC-44; first compound 0.03162 µM): 0.943
relative viability (HCC-44; first compound 0.1 µM): 0.833
relative viability (NCI-H2009; first compound 0.001 µM): 0.886
relative viability (NCI-H2009; first compound 0.003162 µM): 1.14
relative viability (NCI-H2009; first compound 0.01 µM): 1.16
relative viability (NCI-H2009; first compound 0.03162 µM): 0.955
relative viability (NCI-H2009; first compound 0.1 µM): 1.12
